Laboratory results taken from US9840494B2, “Quinazoline derivative” (Tianjin Hemay Oncology Pharmaceutical Co., Ltd., priority 2013, dated 2017).

Assays:
[1] = Bioavailability assay, Experiment III (free base); format: in vivo; details: Wistar rats
Method: Experiment III. Bioavailability Assay for N-[4-(3-chloro-4-fluorophenylamino)-7-(2-methoxyethoxy)quinazolin-6-yl]-2-[1-(2-methoxyethyl)piperidin-4-ylidene]acetamide
8 Wistar rats (male, weighing 160-190 g) were purchased from Laboratory Animal Center, Chinese PLA Academy of Military Medical Sciences. License No.: SCXK (Army) 2012-0004; Certificate No.: 0037074.
1) the compound was precisely weighed in a 10 ml glass tube;
2) The volume of DMSO was 2% of the total volume and DMSO was pipetted. The tip of the pipette was slowly rotated with being pressed against the inner wall of the centrifuge tube, and DMSO was pipetted in several times to dissolve the compound adsorbed on the wall of the centrifuge tube. After all the compound was transferred to the bottom portion of the centrifuge tube, the compound was dissolved by vortex and then placed in a water bath at 80° C.;
3) polyoxylethylene 35-castor oil of which the volume was 6% of the total volume was added and vortex;
4) sodium chloride solution for injection (0.9%) of which the volume was 92% of the total volume was added and vortexed to give a clear solution which will be used within 60 min
8 rats were fasted and ad libitum accessed to water for 12 h before administration. They were randomly divided into two groups, i.e. four rats per group, and were administered with the drug according to the administration scheme. Blood (about 0.5 ml) was drawn from the orbital venous plexus before dosing and at 5 min, 0.5 h, 1 h, 2 h, 3 h, 4 h, 5 h, 6 h and 8 h after dosing, and put into a heparinized centrifuge tube and centrifuged at 8000 r/min for 10 min 100 μl of the plasma was recovered, and 200 μl of 0.2% acetic acid in methanol (containing an internal standard (irbesartan, 20 ng/ml)) was added thereto to precipitate protein, vortexed for 2 min and centrifuged at 13000 r/min for 10 min The supernatant was obtained, and 20 μl of the supernatant was injected for detection.
Chromatographic column: phenomenex Synergi Polar-RP (150×4.6 mm, 2.5 μm)
Flow rate: 1 ml/min; column temperature: 40° C.
Mobile phase: A phase: 5 mM aqueous solution of ammonium formate; B phase: methanol, and the gradient was as follows: […]
API3000 LC-MS/MS; ESI source; MRM positive ion scan mode; and the parameters were as follows:
The main pharmacokinetic parameters and oral bioavailability results were calculated by using DAS2.0 (statistical moment).
Method for the calculation of bioavailability: F=(AUCig×Div)/(AUCiv×Dig)×100%
wherein D is dose; AUC: the area under the plasma drug concentration-time curve; ig represents intragastric administration; and iv represents intravenous injection administration.

[2] = MTD assay, single administration to mice; format: in vivo; details: ICR male mice, tail intravenous administration, 14 days
Text: MTD Assay for a Single […] to Mice
1. Experimental Animals: ICR male mice, weighing 19-22 g, were purchased from Beijing Vital River Laboratory Animal Technology Co., Ltd., Animal License No. SCXK (Beijing) 2007-0001
2. Experimental Scheme: 21 mice were divided into nine groups: groups I, IV and VI referred to one mouse per group, groups II, V and IIX referred to four mice per group, and group III, VI and IX referred to two mice per group. Compound 4, compound 2 and compound 12 were dissolved in water for injection. Groups I-III were subjected to tail intravenous administration of compound 4 (N-[4-(3-chloro-4-fluorophenylamino)-7-(2-methoxyethoxy)quinazolin-6yl]-2-[piperidin-4-ylidene]acetamide dihydrochloride) at doses of 100 mg/kg, 150 mg/kg, and 200 mg/kg, respectively. The animal response and the weight change were observed after administration, and these animals were sacrificed after 14 days for anatomical observation. Groups IV-VI were subjected to tail intravenous administration of compound 2 (N-[4-(3-chloro-4-fluorophenylamino)-7-(2-methoxyethoxy)quinazolin-6yl]-2-[1-(2-methoxyethyl)piperidin-4-ylidene]acetamide dihydrochloride) at doses of 100 mg/kg, 150 mg/kg, and 200 mg/kg, respectively. The animal response and the weight change were observed after administration, and these animals were sacrificed after 14 days for anatomical observation. Groups VII-IX were subjected to tail intravenous administration of compound 12 (N-[4-(3-ethynylphenylamino-7-(2-ethoxy)quinazolin-6yl]-2-[1-methylpiperidin-4-ylidene]acetamide dihydrochloride) at doses of 100 mg/kg, 150 mg/kg, and 200 mg/kg, respectively. The animal response and the weight change were observed after administration, and these animals were sacrificed after 14 days for anatomical observation.

[3] = 20 mg/kg intragastric gavage, preformulation
[4] = 20 mg/kg tail intravenous injection, preformulation
[5] = male, rat, plasma, po, 20 mg/kg intragastric gavage, preformulation
[6] = male, rat, plasma, 20 mg/kg tail intravenous injection, preformulation

COCCOc1cc2ncnc(Nc3ccc(F)c(Cl)c3)c2cc1NC(=O)C=C1CCN(CCOC)CC1 [Compound 1, N-[4-(3-chloro-4-fluorophenylamino)-7-(2-methoxyethoxy)quinazolin-6-yl]-2-[1-(2-methoxyethyl)piperidin-4-ylidene]acetamide]
CLz/F [1, 3]: 103 mL/min/kg | t½z [1, 3]: 4.59 h | CLz [1, 4]: 24.7 mL/min/kg | t½z [1, 4]: 4.39 h | bioavailability ([1]; male, rat, plasma, oral, 20 mg/kg ig vs 20 mg/kg iv): 23.9% | AUC(0-inf) [1, 5]: 3320 ng·h/mL | AUC(0-t) [1, 5]: 2190 ng·h/mL | Cmax [1, 5]: 416 ng/mL | Tmax [1, 5]: 2.5 h | Vd/F ([1]; male, rat, plasma, po, 20 mg/kg intragastric gavage, preformulation, read-out: Vz/F): 39.2 L/kg | AUC(0-inf) [1, 6]: 13900 ng·h/mL | AUC(0-t) [1, 6]: 11800 ng·h/mL | Cmax [1, 6]: 13200 ng/mL | Tmax [1, 6]: 0.083 h | Vd ([1]; male, rat, plasma, 20 mg/kg tail intravenous injection, preformulation, read-out: Vz): 9.55 L/kg

COCCOc1cc2ncnc(Nc3ccc(F)c(Cl)c3)c2cc1NC(=O)C=C1CCN(CCOC)CC1.Cl.Cl [Compound 2, N-[4-(3-chloro-4-fluorophenylamino)-7-(2-methoxyethoxy)quinazolin-6yl]-2-[1-(2-methoxyethyl)piperidin-4-ylidene]acetamide dihydrochloride]
Mortality ([2]; 100 mg/kg, 1 animal): 0% | Number of Deaths ([2]; 100 mg/kg, 1 animal): 0 | Mortality ([2]; 150 mg/kg, 4 animals): 0% | Number of Deaths ([2]; 150 mg/kg, 4 animals): 0 | Mortality ([2]; 200 mg/kg, 2 animals): 0% | Number of Deaths ([2]; 200 mg/kg, 2 animals): 0
